Consider 39 compounds from patent publication US10214531B2 (Institute for Drug Discovery, LLC, priority 2013, dated 2019).

The target of this test is recombinant human AMCase (Homo sapiens, UniProt Q9BZP6). Put plainly: Human AMCase Activity Assay. The format is biochemical. The conditions noted are these: recombinant hAMCase, 4-methylumbelliferyl chitobioside substrate, citrate buffer pH 5.2, 37° C., 60 minutes; read-out: Activity (IC50 value key). The procedure: Human AMCase Activity Assay
The assay was run in the 96-well plate format, each reaction in the total volume of 100 μl. 4-Methylumbelliferyl B-D-N,N′ diacetylchitobioside hydrate was used as a substrate for the enzyme. Upon hydrolysis by AMCase, the substrate releases 4-methylumbelliferyl (4MU), when ionized in basic pH, emits fluorescence of 460 nm.
Briefly, 40 μl of a substrate was added to each well, followed by 10 μl of compound dilution and 50 μl of hAMCase recombinant enzyme solution. The reaction was carried out in citrate buffer, pH 5.2, in the dark, at 37° C. for 60 minutes with shaking.

pIC50: −log10 of the molar value. Where a name gives a salt, the structure may show the parent alone. Where only a bound is given, the exact number is not on record here.

recombinant human AMCase, sequence (Q9BZP6 22-476): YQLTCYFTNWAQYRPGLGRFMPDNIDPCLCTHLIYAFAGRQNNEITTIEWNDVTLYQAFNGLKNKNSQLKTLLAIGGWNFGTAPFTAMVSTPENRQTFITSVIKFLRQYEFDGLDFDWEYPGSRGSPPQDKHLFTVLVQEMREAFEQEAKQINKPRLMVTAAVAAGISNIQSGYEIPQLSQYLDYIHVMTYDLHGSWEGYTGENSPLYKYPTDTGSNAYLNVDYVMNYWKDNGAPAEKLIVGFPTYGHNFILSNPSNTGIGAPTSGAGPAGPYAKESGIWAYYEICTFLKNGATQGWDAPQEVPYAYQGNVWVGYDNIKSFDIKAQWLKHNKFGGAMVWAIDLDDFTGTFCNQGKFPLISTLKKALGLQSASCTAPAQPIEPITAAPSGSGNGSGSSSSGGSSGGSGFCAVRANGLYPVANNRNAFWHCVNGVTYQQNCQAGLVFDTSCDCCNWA

Consider `Nc1n[nH]c(N2CCC(c3nc(-c4ccc5c(c4)OCO5)no3)CC2)n1` [Example 41, 5-(4-(3-(benzo[d][1,3]dioxol-5-yl)-1,2,4-oxadiazol-5-yl)piperidin-1-yl)-1H-1,2,4-triazol-3-amine], for which the pIC50 is less than 4.00. As for `CS(=O)(=O)c1ccc(-c2noc(C3CCN(c4nc(N)n[nH]4)CC3)n2)cc1` [Example 42, 5-(4-(3-(4-(methylsulfonyl)phenyl)-1,2,4-oxadiazol-5-yl)piperidin-1-yl)-1H-1,2,4-triazol-3-amine], the figure is less than 4.00; as for `Nc1n[nH]c(N2CCC(c3nnc(-c4ccc(F)cc4)o3)CC2)n1` [Example 43, 5-(4-(5-(4-fluorophenyl)-1,3,4-oxadiazol-2-yl)piperidin-1-yl)-1H-1,2,4-triazol-3-amine], less than 4.00; as for `CC(Oc1ccccc1F)C(=O)N1CCN(c2nc(N)n[nH]2)CC1` (stereo not drawn) [Example 44, 1-(4-(3-amino-1H-1,2,4-triazol-5-yl)piperazin-1-yl)-2-(2-fluorophenoxy)propan-1-one], less than 4.00. As for `Cc1ccc(OC(C)C(=O)N2CCN(c3nc(N)n[nH]3)CC2)c(Cl)c1` (stereo not drawn) [Example 45, 1-(4-(3-amino-1H-1,2,4-triazol-5-yl)piperazin-1-yl)-2-(2-chloro-4-methylphenoxy)propan-1-one], the figure is less than 4.00. As for `Nc1n[nH]c(N2CCN(C(=O)OCc3ccccc3)CC2)n1` [Example 47, benzyl 4-(3-amino-1H-1,2,4-triazol-5-yl)piperazine-1-carboxylate], the pIC50 is less than 4.00. With `Nc1n[nH]c(N2CCN(C(=O)c3cc4ccccc4o3)CC2)n1` [Example 48, (4-(3-amino-1H-1,2,4-triazol-5-yl)piperazin-1-yl)(benzofuran-2-yl)methanone], the pIC50 is less than 4.00. Consider `Nc1n[nH]c(N2CCC(C(=O)NCc3ccc(F)cc3)CC2)n1` [Example 49, 1-(3-amino-1H-1,2,4-triazol-5-yl)-N-(4-fluorobenzyl)piperidine-4-carboxamide], for which the pIC50 was less than 4.00. As for `Nc1n[nH]c(N2CCC(C(=O)NCc3ccc(F)cc3C(F)(F)F)CC2)n1` [Example 50, 1-(3-amino-1H-1,2,4-triazol-5-yl)-N-(4-fluoro-2-(trifluoromethyl)benzyl)piperidine-4-carboxamide], the pIC50 was less than 4.00. Consider `Nc1n[nH]c(N2CCC(C(=O)NCc3ccccc3F)CC2)n1` [Example 51, 1-(3-amino-1H-1,2,4-triazol-5-yl)-N-(2-fluorobenzyl)piperidine-4-carboxamide], for which the pIC50 was less than 4.00.

Consider `Nc1n[nH]c(N2CCC(C(=O)NCc3ccc(Cl)cc3)CC2)n1` [Example 52, 1-(3-amino-1H-1,2,4-triazol-5-yl)-N-(4-chlorobenzyl)piperidine-4-carboxamide], for which the pIC50 was less than 4.00. Turning to `Nc1n[nH]c(N2CCC(C(=O)NCc3ccccc3Br)CC2)n1` [Example 53, 1-(3-amino-1H-1,2,4-triazol-5-yl)-N-(2-bromobenzyl)piperidine-4-carboxamide], the pIC50 was less than 4.00. Regarding `Nc1n[nH]c(N2CCC(C(=O)NCc3ccc(F)c(C(F)(F)F)c3)CC2)n1` [Example 54, 1-(3-amino-1H-1,2,4-triazol-5-yl)-N-(4-fluoro-3-(trifluoromethyl)benzyl)piperidine-4-carboxamide], the pIC50 was less than 4.00.

Regarding `Nc1n[nH]c(N2CCC(NS(=O)(=O)Cc3cccc(F)c3)CC2)n1` [Example 56, N-(1-(3-amino-1H-1,2,4-triazol-5-yl)piperidin-4-yl)-1-(3-fluorophenyl)methanesulfonamide], the pIC50 was 4.00 to 5.00. As for `Nc1n[nH]c(N2CCC(NS(=O)(=O)Cc3ccc(F)cc3)CC2)n1` [Example 57, N-(1-(3-amino-1H-1,2,4-triazol-5-yl)piperidin-4-yl)-1-(4-fluorophenyl)methanesulfonamide], the figure is 4.00 to 5.00; as for `Nc1n[nH]c(N2CCC(NS(=O)(=O)Cc3cc(Cl)cc(Cl)c3)CC2)n1` [Example 58, N-(1-(3-amino-1H-1,2,4-triazol-5-yl)piperidin-4-yl)-1-(3,5-dichlorophenyl)methanesulfonamide], 5.00 to 6.00; as for `Nc1n[nH]c(N2CCC(NS(=O)(=O)Cc3cccc(Cl)c3)CC2)n1` [Example 59, N-(1-(3-amino-1H-1,2,4-triazol-5-yl)piperidin-4-yl)-1-(3-chlorophenyl)methanesulfonamide], 5.00 to 6.00. Take `CCC(CN1CCN(c2nc(N)n[nH]2)CC1)Oc1ccc(Br)cc1` (stereo not drawn) [Example 60, 5-(4-(2-(4-bromophenoxy)butyl)piperazin-1-yl)-1H-1,2,4-triazol-3-amine]: the pIC50 is 4.00 to 5.00. As for `C[C@H](CN1CCN(c2nc(N)n[nH]2)CC1)Oc1ccc(Br)cc1` [Example 61, (R)-5-(4-(2-(4-bromophenoxy)propyl)piperazin-1-yl)-1H-1,2,4-triazol-3-amine], the figure is 5.00 to 6.00. Regarding `C[C@@H](CN1CCN(c2nc(N)n[nH]2)CC1)Oc1ccc(Br)cc1` [Example 62, (S)-5-(4-(2-(4-bromophenoxy)propyl)piperazin-1-yl)-1H-1,2,4-triazol-3-amine], the pIC50 was 6.00 to 7.00. As to `CCC(CN1CCN(c2nc(N)n[nH]2)CC1)Oc1ccc(Cl)cc1` (stereo not drawn) [Example 63, 5-(4-(2-(4-chlorophenoxy)butyl)piperazin-1-yl)-1H-1,2,4-triazol-3-amine], the pIC50 is 4.00 to 5.00.

Regarding `C[C@H](CN1CCN(c2nc(N)n[nH]2)CC1)Oc1ccc(Cl)cc1` [Example 64, (R)-5-(4-(2-(4-chlorophenoxy)propyl)piperazin-1-yl)-1H-1,2,4-triazol-3-amine], the pIC50 was 4.00 to 5.00.

Consider `C[C@@H](CN1CCN(c2nc(N)n[nH]2)CC1)Oc1ccc(Cl)cc1` [Example 65, (S)-5-(4-(2-(4-chlorophenoxy)propyl)piperazin-1-yl)-1H-1,2,4-triazol-3-amine], for which the pIC50 was 4.00 to 5.00.

Turning to `Nc1n[nH]c(N2CCN(CCCc3ccc(Cl)cc3)C(CO)C2)n1` (stereo not drawn) [Example 66, (4-(3-amino-1H-1,2,4-triazol-5-yl)-1-(3-(4-chlorophenyl)propyl)piperazin-2-yl)methanol], the pIC50 was 4.00 to 5.00. For `Nc1n[nH]c(N2CCC(NC(=O)Nc3ccc(Cl)cc3)CC2)n1` [Example 67, 1-(1-(3-amino-1H-1,2,4-triazol-5-yl)piperidin-4-yl)-3-(4-chlorophenyl)urea], the pIC50 is less than 4.00.

Take `Nc1n[nH]c(N2CCC(NC(=O)Nc3ccc(F)c(F)c3)CC2)n1` [Example 68, 1-(1-(3-amino-1H-1,2,4-triazol-5-yl)piperidin-4-yl)-3-(3,4-difluorophenyl)urea]: the pIC50 was less than 4.00. Take `Nc1n[nH]c(N2CCC(CNC(=O)c3cccc(Br)c3)CC2)n1` [Example 69, N-((1-(3-amino-1H-1,2,4-triazol-5-yl)piperidin-4-yl)methyl)-3-bromo benzamide]: the pIC50 was less than 4.00.

`Nc1n[nH]c(N2CCC(CC(=O)Nc3ccc(Br)cc3)CC2)n1` [Example 70, 2-(1-(3-amino-1H-1,2,4-triazol-5-yl)piperidin-4-yl)-N-(4-bromophenyl)acetamide]: the pIC50 is less than 4.00.

For the compound `Nc1n[nH]c(N2CCC(NC(=O)C(O)c3ccc(Cl)cc3)CC2)n1` (stereo not drawn) [Example 71, N-(1-(3-amino-1H-1,2,4-triazol-5-yl)piperidin-4-yl)-2-(4-chlorophenyl)-2-hydroxyacetamide], the pIC50 is less than 4.00. For the compound `Nc1n[nH]c(N2CCN(C(=O)[C@H](O)Cc3ccc(Cl)cc3)CC2)n1` [Example 72, (R)-1-(4-(3-amino-1H-1,2,4-triazol-5-yl)piperazin-1-yl)-3-(4-chlorophenyl)-2-hydroxypropan-1-one], the pIC50 was less than 4.00. As for `Nc1n[nH]c(N2CCN(C(=O)C(O)Cc3ccccc3Cl)CC2)n1` (stereo not drawn) [Example 73, 1-(4-(3-amino-1H-1,2,4-triazol-5-yl)piperazin-1-yl)-3-(2-chlorophenyl)-2-hydroxypropan-1-one], the figure is less than 4.00; as for `Nc1n[nH]c(N2CCN(C(=O)COc3ccc(Cl)c([N+](=O)[O-])c3)CC2)n1` [Example 74, 1-(4-(3-amino-1H-1,2,4-triazol-5-yl)piperazin-1-yl)-2-(4-chloro-3-nitrophenoxy)ethanone], less than 4.00; as for `Nc1n[nH]c(N2CCN(C(=O)[C@@H](N)Cc3ccc(Cl)cc3Cl)CC2)n1` [Example 75-1, (S)-2-amino-1-(4-(3-amino-1H-1,2,4-triazol-5-yl)piperazin-1-yl)-3-(2,4-dichlorophenyl)propan-1-one dihydrochloride], less than 4.00. Regarding `Nc1n[nH]c(N2CCN(C(=O)[C@@H](N)Cc3ccccc3Cl)CC2)n1` [Example 75-2, (S)-2-amino-1-(4-(3-amino-1H-1,2,4-triazol-5-yl)piperazin-1-yl)-3-(2-chlorophenyl)propan-1-one dihydrochloride], the pIC50 was less than 4.00. With `CC(=O)NC(CC(=O)N1CCN(c2nc(N)n[nH]2)CC1)c1ccc(F)cc1` (stereo not drawn) [Example 76, N-(3-(4-(3-amino-1H-1,2,4-triazol-5-yl)piperazin-1-yl)-1-(4-fluorophenyl)-3-oxopropyl)acetamide], the pIC50 was less than 4.00. For the compound `Nc1n[nH]c(N2CCN(CCO)CC2)n1` [Example 77, 2-(4-(3-amino-1H-1,2,4-triazol-5-yl)piperazin-1-yl)ethanol], the negative-log IC50 (pIC50) is less than 4.00.

Regarding `Nc1n[nH]c(N2CCN(CCOc3ccccc3)CC2)n1` [Example 78, 5-(4-(2-phenoxyethyl)piperazin-1-yl)-1H-1,2,4-triazol-3-amine], the pIC50 was less than 4.00. For the compound `Nc1n[nH]c(N2CCN(CCOc3ccccc3Cl)CC2)n1` [Example 79, 5-(4-(2-(2-chlorophenoxy)ethyl)piperazin-1-yl)-1H-1,2,4-triazol-3-amine], the pIC50 is 4.00 to 5.00.

Turning to `Nc1n[nH]c(N2CCN(CCOCc3ccccc3)CC2)n1` [Example 80, 5-(4-(2-(benzyloxy)ethyl)piperazin-1-yl)-1H-1,2,4-triazol-3-amine], the pIC50 was less than 4.00.
